Entries after “also recorded” stand apart in the source; their conditions may differ. Like-named read-outs stand apart in the source and are kept apart here.
Columns and labels:
VSV = assay: microbe, parasite or virus in culture; type: cell-based; conditions: Vesicular stomatitis virus, Vero 76, read-out: VSV EC50
CVB5 [1] = assay: microbe, parasite or virus in culture; type: cell-based, human enterovirus B (coxsackievirus B5); conditions: Enterovirus B, CVB5, Vero 76, read-out: CVB5 EC50
Sb-1 = assay: microbe, parasite or virus in culture; type: cell-based, human enterovirus C (poliovirus type-1); conditions: Enterovirus C, Vero 76, read-out: Sb-1 EC50
HSV-1 = assay: microbe, parasite or virus in culture; type: cell-based, human herpesvirus 1; conditions: Human alphaherpesvirus 1, Vero 76, read-out: HSV-1 EC50
VV = assay: microbe, parasite or virus in culture; type: cell-based; conditions: Orthopoxvirus vaccinia, Vero 76, read-out: VV EC50
[2] = Cytotoxicity in mock-infected Vero-76 monolayers; conditions: African green monkey (Cercopithecus aethiops)
BVDV = assay: microbe, parasite or virus in culture; type: cell-based; conditions: Bovine viral diarrhea virus isolates and strains, MDBK, read-out: BVDV EC50
RSV = assay: microbe, parasite or virus in culture; type: cell-based; conditions: human respiratory syncytial virus, Vero 76, read-out: RSV EC50
[3] = Cytotoxicity in mock-infected MDBK cells (MTT); conditions: cattle (Bos taurus), mock-infected
[4] = Cytotoxicity in mock-infected BHK-21 monolayers (MTT); conditions: Syrian hamster (Mesocricetus auratus)
YFV = assay: microbe, parasite or virus in culture; type: cell-based; conditions: Yellow fever virus, BHK-21, read-out: YFV EC50
Reo-1 = assay: microbe, parasite or virus in culture; type: cell-based, Reovirus type-1; conditions: Reovirus sp., BHK-21, read-out: Reo-1 EC50
CVB5 virions = assay: Virucidal activity assay; type: cell-based, human enterovirus B (coxsackievirus B5); conditions: 20 µM, 4 °C or 37 °C
CVB5 [5] = assay: Time of addition assay; type: cell-based, human enterovirus B (coxsackievirus B5); conditions: 20 µM
CVB5 [6] = assay: Cell pre-treatment assay (viral yield by plaque assay); type: cell-based, human enterovirus B (coxsackievirus B5); conditions: Vero-76 pre-treated 2 h with 20 µM, then CVB5; not treated control 3 × 10^5 PFU/mL
CVB = conditions: cited from earlier work
[7] = Vero-76 cell monolayers, mock-infected
[8] = BHK-21 cell monolayers, mock-infected
[9] = African green monkey (Cercopithecus aethiops)

Compound | melting point [°C] | EC50 (VSV) [µM] | EC50 (CVB5 [1]) [µM] | EC50 (Sb-1) [µM] | EC50 (HSV-1) [µM] | EC50 (VV) [µM] | CC50 [2, 7] [µM] | EC50 (BVDV) [µM] | EC50 (RSV) [µM] | CC50 [3] [µM] | CC50 [4, 8] [µM] | EC50 (YFV) [µM] | EC50 (Reo-1) [µM] | further results
Nc1cccc(Cn2nnc3cc(Cl)c(Cl)cc32)c1 [6a] | 161 to 162 | > 100 | 52 ± 3.6 | > 100 | > 100 | 62.5 ± 16.2 | > 100 | > 100 | > 100 | > 100 | 57 |  |  | 
O=c1cnn([C@@H]2O[C@H](CO)[C@@H](O)[C@H]2O)c(=O)[nH]1 [6az-ur, 6-azauridine, reference compound] |  |  |  |  |  |  | 9.3 ± 1.6 |  | 1.1 ± 0.4 |  | > 100 | 46 ± 2.5 |  | 
Cc1cc2nn(Cc3ccc(N)cc3)nc2cc1C [11b] | 169 to 171 | > 100 | 6 | > 100 | > 100 | > 100 | > 100 | > 100 | > 100 | > 100 | > 100 | > 100 | > 100 | 
Nc1ccc(Cn2nc3cc(F)c(F)cc3n2)cc1 [11d] | 149 to 150 | > 100 | 7.6 ± 1.9 | > 100 | > 100 | > 100 | > 100 | > 100 | > 100 | > 100 | > 100 | > 100 | > 100 | 
CC(C)(C)C(=O)Nc1ccc(Cn2nnc3c(F)cccc32)cc1 [18e, N-(4-((4-fluoro-1H-benzo[d][1,2,3]triazol-1-yl)methyl)phenyl)pivalamide] |  | > 100 | 12.4 ± 0.6 | > 100 | 52 ± 9.2 | > 100 | > 100 | > 100 | > 9 | > 100 | > 100 | > 100 | > 100 | % Late apoptotic cells (Vero-76 cells): 8.3 ± 0.34%; % Live cells (Vero-76 cells): 72.87 ± 1.21%; % Necrotic cells (Vero-76 cells): 12.44 ± 2.35%; % Late apoptotic cells (Vero-76 cells; [9]): 1.03 ± 0.34%; % Live cells (Vero-76 cells; [9]): 94.45 ± 2.55%; % Necrotic cells (Vero-76 cells; [9]): 4.12 ± 2.3%; virucidal effect on CVB5 titer (in words) (CVB5 virions): no virucidal activity; also recorded: no difference between the titers; antiviral effect, compound added during the infection period (in words) (CVB5 [5]; Vero-76, CVB5 m.o.i. 1): antiviral effect was kept; titer reduction, compound added during subsequent steps of the replication cycle (in words) (CVB5 [5]; Vero-76, CVB5 m.o.i. 1, post infection): No titer reduction; TEER values versus control (in words) (Caco-2 cell monolayers): did not significantly differ from control values; viral load after cell pre-treatment (CVB5 [6]): 7× 10^4 PFU/mL; CC50 ([2]; Vero-76 cells): 9 µM
COc1cc(C(=O)Nc2ccc(Cn3nnc4c(F)cccc43)cc2)cc(OC)c1OC [21e] | 177 to 179 | > 100 | > 100 | > 100 | > 100 | > 100 | > 100 |  | 20 ± 2 | 72 | 60 |  |  | 
Cc1cc2nn(Cc3cccc(NC(=O)c4ccc(F)cc4)c3)nc2cc1C [25b] | 211 to 212 | > 100 | 47 ± 2.2 | > 100 | > 100 | > 100 | > 100 | > 100 | > 100 | > 100 | > 100 | > 100 | > 100 | 
CCCCNC(=O)Nc1cccc(Cn2nc3cc(C)c(C)cc3n2)c1 [32b] | 288 to 289 | > 100 | > 100 | 85 | > 100 | > 100 | > 100 |  | > 100 | > 100 | > 100 | > 100 | > 100 | 
COc1cc(C(=O)Nc2cccc(Cn3nnc4cc(Cl)c(Cl)cc43)c2)cc(OC)c1OC [41a] | 142 to 144 | > 100 | 18.5 ± 2.1 | > 100 | > 100 | > 100 | > 100 | > 100 | > 10.5 | > 100 | > 100 | > 100 | > 7 | CC50 ([2]; Vero-76 cells): 10.5 µM; CC50 ([4]; BHK-21 cells): 7 µM
O=C(Nc1cccc(Cn2nnc3cc(Cl)c(Cl)cc32)c1)c1ccc(Cl)cc1 [43a, N-(3-((5,6-dichloro-1H-benzo[d][1,2,3]triazol-1-yl)methyl)phenyl)-4-chlorobenzamide] |  | > 100 | 9 ± 1.6 | > 100 | > 100 | > 100 | > 100 | > 100 | > 9.2 | > 100 | > 100 | > 100 | > 100 | TEER values versus control (in words) (Caco-2 cell monolayers): did not significantly differ from control values; CC50 ([2]; Vero-76 cells): 9.2 µM
CC(=O)Nc1ccc(Cn2nnc3ccccc32)cc1 [79c] | 187 to 189 | > 72 | > 72 | > 72 | > 72 | > 72 | 72 | > 44 | > 9 | 44 | 86 | > 86 | > 86 | CC50 ([2]; Vero-76 cells): 9 µM
CCCNC(=O)Nc1ccc(Cn2nnc3cc(C)c(C)cc32)cc1 [99b] | 190 to 192 | > 100 | 16 | > 100 | > 100 | > 100 | > 100 | > 100 | > 100 | > 100 | > 100 | > 100 | > 100 | 
Cc1cc2nnn(Cc3ccc(NC(=O)NC4CCCCC4)cc3)c2cc1C [100b] | 216 to 218 | > 100 | 50 | > 100 | > 100 |  | > 100 | > 100 | > 100 | > 100 | > 100 | > 100 | > 100 | 
O=C(CCC(=O)Nc1ccc(-n2nnc3cc(Cl)c(Cl)cc32)cc1)Nc1ccc(-n2nnc3cc(Cl)c(Cl)cc32)cc1 [A, N1,N4-bis(4-(5,6-dichloro-1H-benzo[d][1,2,3]triazol-1-yl)phenyl)succinamide] |  |  |  |  |  |  |  |  |  |  |  |  |  | activity against CVB (in words) (CVB): not active
O=C(CCC(=O)Nc1ccc(Cn2nnc3cc(Cl)c(Cl)cc32)cc1)Nc1ccc(Cn2nnc3cc(Cl)c(Cl)cc32)cc1 [B, N1,N4-bis(4-((5,6-dichloro-1H-benzo[d][1,2,3]triazol-1-yl)methyl)phenyl)succinamide] |  |  |  |  |  |  |  |  |  |  |  |  |  | EC50 (CVB): 23 µM
C[C@@]1(O)[C@H](O)[C@@H](CO)O[C@H]1n1ccc(N)nc1=O [NM107, 2’-C-methylcytidine, reference compound] |  |  |  |  |  |  |  |  |  |  | > 100 |  | 6 ± 2.1 | 

— PMC10054465, “Design, Synthesis, and Antiviral Activities of New Benzotriazole-Based Derivatives” (Pharmaceuticals, 2023)
